Experiments:
Format in all cases: in vivo
Wheat = experiment: Postemergent activity; conditions: Triticum aestivum, post-emergence, 336 h, read-out: % Control
How it was run: (§1)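 Pots of plants about 10 cm tall sprayed to run-off at 125, 62.5, 31.25, 15.6, 7.8 and 3.9 ppm. Spray: active in acetone mixed with an equal volume of water containing 0.1% TWEEN 200. Growth scored two weeks later on a 0–100 scale (0 no effect, 100 complete kill).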

Wild Oats = experiment: Postemergent activity; conditions: Avena fatua, post-emergence, 336 h
How it was run: as §1

Barley = experiment: Postemergent activity
How it was run: (§2)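 Postemergence foliar spray; pots at ~10 cm plant height. Active in acetone (2× final conc.) + equal vol. water with 0.1 wt% TWEEN 200. Applied to run-off, conventional sprayer; pots then held under growth-conducive conditions.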

Blackgrass = experiment: Postemergent activity
How it was run: as §2

Cheatgrass = experiment: Postemergent activity
How it was run: as §2

Green Foxtail = experiment: Postemergent activity
How it was run: as §2

Yellow Foxtail = experiment: Postemergent activity
How it was run: as §2

Broadleaf Signalgrass = experiment: Selective postemergence, track sprayer
Method: (§3) Representative compositions of the present invention were evaluated for the postemergence control of species of plants listed in Table A. In these evaluations, pots of the plant species listed in Table A, grown to a height of about 10 cms, were used. Aqueous spray compositions, containing various amounts of 2-[4-(2-fluoro-4-trifluoromethylphenoxy)-phenoxy]propionic acid methy ester, i.e., 125 ppm, 62.5 ppm, 31.25 ppm, 15.6 ppm, 7.8 ppm and 3.9 ppm, respectively, were applied to separate pots. The spray compositions were made by mixing the active ingredient in acetone to 1/2 the final volume, i.e., twice the final concentration. An equal amount of water was added to the active ingredient/acetone mixture wherein the water contained 0.1 percent by weight of TWEEN® 200 surfactant. The application to the plants was made to the point of run-off and was carried out with conventional spraying equipment. Other pots were sprayed with similar compositions containing no toxicant to serve as controls. Thereafter, the pots were maintained under conditions conducive for plant growth. Two weeks after treatment, the pots were examined for plant growth and evaluated on a scale of 0 to 100 where 0 represents no effect and 100 represents complete kill. The results of the examination of the treated pots are set forth below in Table A.
(§4) To further define the selective postemergence herbicidal characteristics of compounds of the present invention, chemicals were applied to additional species of grasses as listed in Table F. Chemicals evaluated were 2-[4-(4-bromo-2-fluorophenoxy)phenoxy]propionic acid methyl ester and its R isomer. Treatment conditions were similar to those described in Example A except that chemicals were delivered through a track sprayer set to deliver the appropriate dosages in 280.6 L/hectare of water containing 0.1% Tween-20 surfactant.

Giant Foxtail = experiment: Selective postemergence, track sprayer
Method: as §3, §4

Orchardgrass = experiment: Selective postemergence, track sprayer
Method: as §3, §4

Sprangletop = experiment: Selective postemergence, track sprayer
Method: as §3, §4

## COC(=O)[C@@H](C)Oc1ccc(Oc2ccc(Br)cc2F)cc1 [4-Bromo-(R-Enantiomer), R enantiomer of 2-[4-(4-bromo-2-fluorophenoxy)phenoxy]propionic acid methyl ester]
Wheat; 1.9 ppm
  plant injury at 1.9 ppm: 0%
Wheat; 3.9 ppm
  plant injury at 3.9 ppm: 0%
Wheat; 7.8 ppm
  plant injury at 7.8 ppm: 0%
Wheat; 15.6 ppm
  plant injury at 15.6 ppm: 0%
Wheat; 31.25 ppm
  plant injury at 31.25 ppm: 0%
Wheat; 62.5 ppm
  plant injury at 62.5 ppm: 0%
Wheat; 125 ppm
  plant injury at 125 ppm: 70%
Wheat; 250 ppm
  plant injury at 250 ppm: 100%
Wild Oats; 1.9 ppm
  pest or weed control at 1.9 ppm: 60%
Wild Oats; 3.9 ppm
  pest or weed control at 3.9 ppm: 80%
Wild Oats; 7.8 ppm, read-out: % Control
  pest or weed control at 7.8 ppm: 80%
Wild Oats; 15.6 ppm, read-out: % Control
  pest or weed control at 15.6 ppm: 90%
Wild Oats; 31.25 ppm, read-out: % Control
  pest or weed control at 31.25 ppm: 90%
Wild Oats; 62.5 ppm, read-out: % Control
  pest or weed control at 62.5 ppm: 100%
Wild Oats; 125 ppm, read-out: % Control
  pest or weed control at 125 ppm: 100%
Wild Oats; 250 ppm, read-out: % Control
  pest or weed control at 250 ppm: 100%
Barley; 1.9 ppm
  % Control: 0%
Barley; 3.9 ppm
  % Control: 0%
Barley; 7.8 ppm
  % Control: 0%
Barley; 15.6 ppm
  % Control: 0%
Barley; 31.25 ppm
  % Control: 0%
Barley; 62.5 ppm
  % Control: 95%
Barley; 125 ppm
  % Control: 90%
Barley; 250 ppm
  % Control: 100%
Blackgrass; 0.1 ppm
  % Control: 0%
Blackgrass; 0.2 ppm
  % Control: 0%
Blackgrass; 0.4 ppm
  % Control: 50%
Blackgrass; 0.8 ppm
  % Control: 60%
Blackgrass; 1.5 ppm
  % Control: 90%
Blackgrass; 3.1 ppm
  % Control: 90%
Blackgrass; 6.3 ppm
  % Control: 100%
Blackgrass; 12.5 ppm
  % Control: 100%
Cheatgrass; 0.1 ppm
  % Control: 0%
Cheatgrass; 0.2 ppm
  % Control: 0%
Cheatgrass; 0.4 ppm
  % Control: 0%
Cheatgrass; 0.8 ppm
  % Control: 0%
Cheatgrass; 1.5 ppm
  % Control: 0%
Cheatgrass; 3.1 ppm
  % Control: 0%
Cheatgrass; 6.3 ppm
  % Control: 0%
Cheatgrass; 12.5 ppm
  % Control: 0%
Green Foxtail; 0.1 ppm
  % Control: 0%
Green Foxtail; 0.2 ppm
  % Control: 50%
Green Foxtail; 0.4 ppm
  % Control: 100%
Green Foxtail; 0.8 ppm
  % Control: 100%
Green Foxtail; 1.5 ppm
  % Control: 100%
Green Foxtail; 3.1 ppm
  % Control: 100%
Green Foxtail; 6.3 ppm
  % Control: 100%
Green Foxtail; 12.5 ppm
  % Control: 100%
Yellow Foxtail; 0.1 ppm
  % Control: 0%
Yellow Foxtail; 0.2 ppm
  % Control: 0%
Yellow Foxtail; 0.4 ppm
  % Control: 0%
Yellow Foxtail; 0.8 ppm
  % Control: 20%
Yellow Foxtail; 1.5 ppm
  % Control: 60%
Yellow Foxtail; 3.1 ppm
  % Control: 100%
Yellow Foxtail; 6.3 ppm
  % Control: 100%
Yellow Foxtail; 12.5 ppm
  % Control: 100%
Broadleaf Signalgrass; 0.00055 kgs/hectare
  Percent Control: 50%
Broadleaf Signalgrass; 0.0011 kgs/hectare
  Percent Control: 50%
Broadleaf Signalgrass; 0.0023 kgs/hectare
  Percent Control: 50%
Broadleaf Signalgrass; 0.0045 kgs/hectare
  Percent Control: 90%
Broadleaf Signalgrass; 0.009 kgs/hectare
  Percent Control: 95%
Broadleaf Signalgrass; 0.018 kgs/hectare
  Percent Control: 100%
Broadleaf Signalgrass; 0.035 kgs/hectare
  Percent Control: 100%
Broadleaf Signalgrass; 0.07 kgs/hectare
  Percent Control: 100%
Broadleaf Signalgrass; 0.14 kgs/hectare
  Percent Control: 100%
Broadleaf Signalgrass; 0.28 kgs/hectare
  Percent Control: 100%
Giant Foxtail; 0.00055 kgs/hectare
  Percent Control: 80%
Giant Foxtail; 0.0011 kgs/hectare
  Percent Control: 100%
Giant Foxtail; 0.0023 kgs/hectare
  Percent Control: 100%
Giant Foxtail; 0.0045 kgs/hectare
  Percent Control: 100%
Giant Foxtail; 0.009 kgs/hectare
  Percent Control: 100%
Giant Foxtail; 0.018 kgs/hectare
  Percent Control: 100%
Giant Foxtail; 0.035 kgs/hectare
  Percent Control: 100%
Giant Foxtail; 0.07 kgs/hectare
  Percent Control: 100%
Giant Foxtail; 0.14 kgs/hectare
  Percent Control: 100%
Giant Foxtail; 0.28 kgs/hectare
  Percent Control: 100%
Orchardgrass; 0.00055 kgs/hectare
  Percent Control: 0%
Orchardgrass; 0.0011 kgs/hectare
  Percent Control: 0%
Orchardgrass; 0.0023 kgs/hectare
  Percent Control: 0%
Orchardgrass; 0.0045 kgs/hectare
  Percent Control: 0%
Orchardgrass; 0.009 kgs/hectare
  Percent Control: 0%
Orchardgrass; 0.018 kgs/hectare
  Percent Control: 0%
Orchardgrass; 0.035 kgs/hectare
  Percent Control: 0%
Orchardgrass; 0.07 kgs/hectare
  Percent Control: 0%
Orchardgrass; 0.14 kgs/hectare
  Percent Control: 0%
Orchardgrass; 0.28 kgs/hectare
  Percent Control: 50%
Sprangletop; 0.00055 kgs/hectare
  Percent Control: 0%
Sprangletop; 0.0011 kgs/hectare
  Percent Control: 20%
Sprangletop; 0.0023 kgs/hectare
  Percent Control: 100%
Sprangletop; 0.0045 kgs/hectare
  Percent Control: 100%
Sprangletop; 0.009 kgs/hectare
  Percent Control: 100%
Sprangletop; 0.018 kgs/hectare
  Percent Control: 100%
Sprangletop; 0.035 kgs/hectare
  Percent Control: 100%
Sprangletop; 0.07 kgs/hectare
  Percent Control: 100%
Sprangletop; 0.14 kgs/hectare
  Percent Control: 100%
Sprangletop; 0.28 kgs/hectare
  Percent Control: 100%

From patent US4725683A, “Fluorophenoxyphenoxypropionates and derivatives thereof” (The Dow Chemical Company, priority 1985, dated 1988)
